Literature values as cited in patent publication US20220184159A1, “METHOD OF BOOSTING INNATE IMMUNITY” (UNIVERSITY OF THE SUNSHINE COAST, priority 2018, published 2022).

Assays:
[1] = administered in the feed, fish
immune system of fish = details: carp, rainbow trout, turbot and Atlantic cod

## CN(C)[C@@H]1C(O)=C(C(N)=O)C(=O)[C@@]2(O)C(O)=C3C(=O)c4c(O)cccc4[C@@](C)(O)[C@H]3[C@H](O)[C@@H]12 [Oxytetracycline]
[1]
  ingested oxytetracycline excreted intact in the faeces: 70-80%
Immune system of fish
  effect on the immune system of fish: immunosuppressive effects
